Where two headings read alike, the source gives them in different places.
Experiments:
Format in all cases: biochemical
p110alpha = p110alpha (Homo sapiens, UniProt P42336); test: PI3K kinase assay (ADP-Glo), p110alpha; conditions: final ATP 25 μM
Procedure: (§1) Summary of PI3K Kinase Assay
Enzyme optimization: After optimization, the following concentrations of Enzyme are used to compound testing: P110alpha 1 μg/ml,
(§2) 1. Prepare 1.25× enzyme/substrate: mix equal volume of 2.5× enzyme (in 2.5× reaction buffer) and 2.5× substrate (final 0.05 mg/ml) (in 2.5× lipid dilution buffer);
(§3) 2. Add 4 μl of 1.25× enzyme/substrate mixture to 384-well low volume white plate;
(§4) 3. Add 0.1 μl of increasing concentrations of compound diluted in DMSO;
(§5) 4. Incubate at r.t. for 30 min;
(§6) 5. Dispense 1 μl of 250 μM ATP diluted in ddH2O. The final ATP was 25 μM;
(§7) 6. Incubate at r.t. for 1 h;
(§8) 7. Add 5 μl of ADP-Glo with 10 mM MgCl2;
(§9) 8. Incubate at r.t. for 40 min;
(§10) 9. Add 10 μl of kinase detection buffer;
(§11) 10. Incubated at r.t. for 30 min; and
(§12) 11. Read luminescence signal using Envision multilabel plate reader.
(§13) The effect of compound on kinase activity is expressed as % of control and calculated as the following equation: % of Control=(Lum compound−Lum blank)/(Lum vehicle control−Lum blank)×100 • * blank is the substrate only without enzyme, which is the background signal control.
(§14) The experiment was repeated twice on different days at triplicates per sample.

p110delta = p110delta (Homo sapiens, UniProt O00329); test: PI3K kinase assay (ADP-Glo), p110delta; conditions: final ATP 25 μM
Chain of p110delta (O00329 whole entry): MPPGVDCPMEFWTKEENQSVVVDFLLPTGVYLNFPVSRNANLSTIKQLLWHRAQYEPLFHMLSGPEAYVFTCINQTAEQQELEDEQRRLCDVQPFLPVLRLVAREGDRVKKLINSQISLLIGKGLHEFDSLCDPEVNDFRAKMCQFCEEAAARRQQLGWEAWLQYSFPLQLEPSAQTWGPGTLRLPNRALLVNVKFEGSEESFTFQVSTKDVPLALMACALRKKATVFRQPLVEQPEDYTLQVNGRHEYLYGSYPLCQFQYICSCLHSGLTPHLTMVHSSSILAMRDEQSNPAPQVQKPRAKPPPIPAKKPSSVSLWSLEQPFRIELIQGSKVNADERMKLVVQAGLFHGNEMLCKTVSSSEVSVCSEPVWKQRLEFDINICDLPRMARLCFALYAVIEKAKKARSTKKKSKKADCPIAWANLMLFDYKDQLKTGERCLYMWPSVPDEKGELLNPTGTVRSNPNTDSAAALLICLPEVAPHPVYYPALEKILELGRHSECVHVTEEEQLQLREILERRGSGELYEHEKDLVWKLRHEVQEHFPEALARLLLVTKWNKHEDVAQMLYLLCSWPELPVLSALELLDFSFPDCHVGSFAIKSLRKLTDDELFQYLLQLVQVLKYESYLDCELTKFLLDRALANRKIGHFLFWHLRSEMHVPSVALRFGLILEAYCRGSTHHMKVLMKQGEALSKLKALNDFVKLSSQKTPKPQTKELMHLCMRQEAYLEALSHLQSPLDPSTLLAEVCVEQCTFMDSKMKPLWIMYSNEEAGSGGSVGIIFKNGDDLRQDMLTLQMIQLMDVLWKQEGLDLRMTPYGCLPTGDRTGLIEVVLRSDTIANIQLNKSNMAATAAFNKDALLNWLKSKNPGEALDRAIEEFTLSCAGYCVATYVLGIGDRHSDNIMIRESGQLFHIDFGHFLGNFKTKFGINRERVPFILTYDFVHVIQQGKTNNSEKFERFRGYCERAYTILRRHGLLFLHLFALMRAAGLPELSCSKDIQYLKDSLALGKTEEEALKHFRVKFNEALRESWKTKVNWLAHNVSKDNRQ
Chain of p110delta (P27986 whole entry partner): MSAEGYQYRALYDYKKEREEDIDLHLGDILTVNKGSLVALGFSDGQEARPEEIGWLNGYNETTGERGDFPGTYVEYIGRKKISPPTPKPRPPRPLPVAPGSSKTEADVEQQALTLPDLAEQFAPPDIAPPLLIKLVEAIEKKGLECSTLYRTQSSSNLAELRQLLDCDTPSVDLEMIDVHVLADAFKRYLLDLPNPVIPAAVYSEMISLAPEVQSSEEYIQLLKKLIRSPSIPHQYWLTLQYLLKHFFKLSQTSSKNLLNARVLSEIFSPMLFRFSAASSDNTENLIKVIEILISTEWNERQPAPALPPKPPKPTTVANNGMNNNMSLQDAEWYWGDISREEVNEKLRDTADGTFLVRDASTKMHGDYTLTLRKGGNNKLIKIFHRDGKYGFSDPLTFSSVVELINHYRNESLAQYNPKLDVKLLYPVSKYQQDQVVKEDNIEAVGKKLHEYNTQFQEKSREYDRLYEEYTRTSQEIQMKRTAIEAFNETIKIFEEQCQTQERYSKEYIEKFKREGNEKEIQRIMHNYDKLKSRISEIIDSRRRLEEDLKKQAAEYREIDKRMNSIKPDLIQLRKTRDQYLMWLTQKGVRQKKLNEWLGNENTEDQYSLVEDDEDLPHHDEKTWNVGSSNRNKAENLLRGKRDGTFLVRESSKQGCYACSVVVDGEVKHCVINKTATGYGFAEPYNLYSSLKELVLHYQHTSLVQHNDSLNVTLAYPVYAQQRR
Procedure: as §1, §2, §3, §4, §5, §6, §7, §8, §9, §10, §11, §12, §13, §14

p110beta = p110beta (Homo sapiens, UniProt P42338); test: PI3K kinase assay (ADP-Glo), p110beta; conditions: final ATP 25 μM
Chain of p110beta (P42338 whole entry): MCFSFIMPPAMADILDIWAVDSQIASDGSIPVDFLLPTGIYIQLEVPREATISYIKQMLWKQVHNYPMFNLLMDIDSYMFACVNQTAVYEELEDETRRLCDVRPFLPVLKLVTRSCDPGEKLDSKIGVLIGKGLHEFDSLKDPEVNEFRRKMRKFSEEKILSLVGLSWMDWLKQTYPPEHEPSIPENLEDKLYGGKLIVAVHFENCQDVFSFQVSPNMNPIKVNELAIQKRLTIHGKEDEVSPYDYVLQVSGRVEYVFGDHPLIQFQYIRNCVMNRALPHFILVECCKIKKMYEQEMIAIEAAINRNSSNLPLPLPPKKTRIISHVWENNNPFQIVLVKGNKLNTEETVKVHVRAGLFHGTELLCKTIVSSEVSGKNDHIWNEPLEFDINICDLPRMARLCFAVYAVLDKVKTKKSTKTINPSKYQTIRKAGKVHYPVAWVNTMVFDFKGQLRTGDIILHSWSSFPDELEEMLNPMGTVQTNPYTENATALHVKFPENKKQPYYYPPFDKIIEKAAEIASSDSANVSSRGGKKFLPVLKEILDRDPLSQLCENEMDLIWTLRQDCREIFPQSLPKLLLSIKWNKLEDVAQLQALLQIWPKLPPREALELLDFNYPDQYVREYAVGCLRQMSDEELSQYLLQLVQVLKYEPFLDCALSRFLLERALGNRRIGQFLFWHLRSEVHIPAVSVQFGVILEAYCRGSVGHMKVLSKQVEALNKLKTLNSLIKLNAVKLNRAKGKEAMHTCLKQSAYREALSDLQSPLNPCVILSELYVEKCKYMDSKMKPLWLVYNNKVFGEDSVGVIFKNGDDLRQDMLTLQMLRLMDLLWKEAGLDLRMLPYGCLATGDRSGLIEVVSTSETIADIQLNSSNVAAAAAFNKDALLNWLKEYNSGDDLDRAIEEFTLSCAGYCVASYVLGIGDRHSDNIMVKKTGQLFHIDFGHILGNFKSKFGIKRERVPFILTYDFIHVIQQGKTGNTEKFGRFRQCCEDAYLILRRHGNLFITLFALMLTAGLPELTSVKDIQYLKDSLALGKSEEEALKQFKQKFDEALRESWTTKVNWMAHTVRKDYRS
Chain of p110beta (P27986 whole entry partner): as the sequence (P27986 whole entry partner) above
Procedure: as §1, §2, §3, §4, §5, §6, §7, §8, §9, §10, §11, §12, §13, §14

p120gamma = p120gamma (Homo sapiens, UniProt P48736); test: PI3K kinase assay (ADP-Glo), p120gamma; conditions: final ATP 25 μM
Procedure: as §1, §2, §3, §4, §5, §6, §7, §8, §9, §10, §11, §12, §13, §14

PI3Kα = molecular target: T1, PI3Kα (Homo sapiens, UniProt P42336); test: Ki for PI3Kα (Promega ADP-Glo Lipid Kinase System)
T1 construct: purchased Promega V1721
T1 sequence (P42336 whole entry): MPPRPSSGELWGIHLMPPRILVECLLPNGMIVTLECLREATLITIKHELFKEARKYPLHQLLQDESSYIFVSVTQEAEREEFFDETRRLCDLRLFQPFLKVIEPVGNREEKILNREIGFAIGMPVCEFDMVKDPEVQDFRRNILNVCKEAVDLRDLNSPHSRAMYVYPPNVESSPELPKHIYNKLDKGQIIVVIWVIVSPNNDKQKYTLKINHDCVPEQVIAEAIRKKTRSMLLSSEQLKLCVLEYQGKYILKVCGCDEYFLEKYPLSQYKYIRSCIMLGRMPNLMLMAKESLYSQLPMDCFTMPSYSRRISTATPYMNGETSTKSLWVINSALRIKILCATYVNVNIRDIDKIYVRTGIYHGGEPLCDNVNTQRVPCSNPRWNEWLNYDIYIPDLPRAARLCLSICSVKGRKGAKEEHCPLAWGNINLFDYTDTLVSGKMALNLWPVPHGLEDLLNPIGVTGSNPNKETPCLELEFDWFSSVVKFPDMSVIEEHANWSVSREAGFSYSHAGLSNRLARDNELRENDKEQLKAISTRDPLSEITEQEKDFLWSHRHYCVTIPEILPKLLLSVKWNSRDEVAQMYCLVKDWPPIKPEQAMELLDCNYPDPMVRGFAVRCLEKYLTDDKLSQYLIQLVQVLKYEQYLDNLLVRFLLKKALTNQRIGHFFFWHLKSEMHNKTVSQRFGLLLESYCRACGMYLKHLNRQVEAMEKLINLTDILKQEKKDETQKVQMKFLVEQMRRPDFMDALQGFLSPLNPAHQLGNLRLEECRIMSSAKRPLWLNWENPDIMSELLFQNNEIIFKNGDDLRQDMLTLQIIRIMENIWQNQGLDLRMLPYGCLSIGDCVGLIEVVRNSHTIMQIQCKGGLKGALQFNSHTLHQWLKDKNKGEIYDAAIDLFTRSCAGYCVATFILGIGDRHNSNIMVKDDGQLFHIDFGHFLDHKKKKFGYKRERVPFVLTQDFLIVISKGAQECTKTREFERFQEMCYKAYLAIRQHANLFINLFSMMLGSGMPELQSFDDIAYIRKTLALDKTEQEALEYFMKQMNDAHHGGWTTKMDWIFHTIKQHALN
T1 sequence (P27986 whole entry partner): as the sequence (P27986 whole entry partner) above
Source text: The Promega V1721 ADP-Glo Lipid Kinase System was used as per the Promega technical manual. The analysis was done in triplicate on three 96-well plates. The plates were read and the data were processed with GraphPad Prism 7.0.

[1] = Exp. 1, read-out: IC50 p110alpha Exp. 1
[2] = Exp. 2, read-out: IC50 p110alpha Exp. 2
[3] = Exp. 1, read-out: IC50 p110delta Exp. 1
[4] = Exp. 2, read-out: IC50 p110delta Exp. 2
[5] = Exp. 1, read-out: IC50 p110beta Exp. 1
[6] = Exp. 2, read-out: IC50 p110beta Exp. 2
[7] = Exp. 1, read-out: IC50 p120gamma Exp. 1
[8] = Exp. 2, read-out: IC50 p120gamma Exp. 2

Chain of p110alpha (P42336 whole entry): as the sequence (P42336 whole entry) above
Chain of p110alpha (P27986 whole entry partner): as the sequence (P27986 whole entry partner) above

| SMILES | IC50 (p110alpha; [1]) | IC50 (p110alpha; [2]) | IC50 (p110delta; [3]) | IC50 (p110delta; [4]) | IC50 (p110beta; [5]) | IC50 (p110beta; [6]) | IC50 (p120gamma; [7]) | IC50 (p120gamma; [8]) | Ki (PI3Kα) |
| --- | --- | --- | --- | --- | --- | --- | --- | --- | --- |
| O=S(=O)(Nc1cncc(-c2ccc3ncc(-c4ncccn4)n3c2)c1)c1ccccc1 [TK2-94p3-47 (6d), N-(5-(3-(pyrimidin-2-yl)imidazo[1,2-a]pyridin-6-yl)pyridin-3-yl)benzenesulfonamide] | 0.0089 µM | 0.0115 µM | 0.0108 µM | 0.0085 µM | 0.0276 µM | 0.0449 µM | 0.0075 µM | 0.0085 µM |  |
| CN(C)c1ncc(-c2cnc3ccc(-c4cncc(NS(=O)(=O)c5ccccc5)c4)cn23)cn1 [TK2-71pZD2-86 (6a), N-(5-(3-(2-(dimethylamino)pyrimidin-5-yl)imidazo[1,2-a]pyridin-6-yl)pyridin-3-yl)benzenesulfonamide] | 0.0209 µM | 0.0337 µM | 0.0335 µM | 0.0342 µM | 0.19 µM | 0.184 µM | 0.0186 µM | 0.0342 µM |  |
| Nc1ccc(-c2cccc3c(=O)cc(N4CCOCC4)oc23)cc1 [PI 828, reference compound] | 0.351 µM | 0.349 µM | 0.308 µM | 0.203 µM | 0.244 µM | 0.242 µM | 1.92 µM | 2.14 µM |  |
| CCc1nc(-c2cnc3ccc(-c4cncc(NS(=O)(=O)c5ccccc5)c4)cn23)no1 |  |  |  |  |  |  |  |  | 0.043 µM |
| O=S(=O)(Nc1cncc(-c2ccc3ncc(-c4cnc5ccnn5c4)n3c2)c1)c1ccccc1 [TK2-130p3-37 (6c), N-(5-(3-(pyrazolo[1,5-a]pyrimidin-6-yl)imidazo[1,2-a]pyridin-6-yl)pyridin-3-yl)benzenesulfonamide] | 0.051 µM | 0.0613 µM | 0.0341 µM | 0.031 µM | 0.419 µM | 0.479 µM | 0.0502 µM | 0.031 µM |  |
| COc1ncc(-c2cnc3ccc(-c4cncc(NS(=O)(=O)c5ccccc5)c4)cn23)cn1 [TK2-67p3-36 (6b), N-(5-(3-(2-methoxypyrimidin-5-yl)imidazo[1,2-a]pyridin-6-yl)pyridin-3-yl)benzenesulfonamide] | 0.0117 µM | 0.0127 µM | 0.0335 µM | 0.0277 µM | 0.167 µM | 0.187 µM | 0.0149 µM | 0.0277 µM |  |

Second part, the compound after the results:

| IC50 (p110alpha; [1]) | IC50 (p110alpha; [2]) | IC50 (p110delta; [3]) | IC50 (p110delta; [4]) | IC50 (p110beta; [5]) | IC50 (p110beta; [6]) | IC50 (p120gamma; [7]) | IC50 (p120gamma; [8]) | Ki (PI3Kα) | SMILES |
| --- | --- | --- | --- | --- | --- | --- | --- | --- | --- |
|  |  |  |  |  |  |  |  | 0.1 µM | O=S(=O)(Nc1cncc(-c2ccc3ncc(-c4ncccn4)n3c2)c1)c1ccccc1 [drawing 19] |
|  |  |  |  |  |  |  |  | 0.244 µM | CN(C)c1ncc(-c2cnc3ccc(-c4cncc(NS(=O)(=O)c5ccccc5)c4)cn23)cn1 [drawing 16] |
|  |  |  |  |  |  |  |  | 0.07 µM | COc1ncc(-c2cnc3ccc(-c4cncc(NS(=O)(=O)c5ccccc5)c4)cn23)cn1 [drawing 17] |
|  |  |  |  |  |  |  |  | 0.329 µM | O=S(=O)(Nc1cncc(-c2ccc3ncc(-c4cnc5ccnn5c4)n3c2)c1)c1ccccc1 [drawing 18] |

Reference: patent US10947225B2, “Phosphotidylinositol 3-kinase inhibitors” (Emory University, priority 2016, dated 2021)
